Experimental findings from patent US7741493B2, “Heterocyclic compounds as P2X7 ion channel blockers” (Aventis Pharmaceuticals Inc., priority 2003, dated 2010) are described below.

Where a name gives a salt, the structure may show the parent alone.

For experiment [1], the target named is T1, P2X7 (Homo sapiens, UniProt Q99572).
T1 sequence (Q99572 1-595): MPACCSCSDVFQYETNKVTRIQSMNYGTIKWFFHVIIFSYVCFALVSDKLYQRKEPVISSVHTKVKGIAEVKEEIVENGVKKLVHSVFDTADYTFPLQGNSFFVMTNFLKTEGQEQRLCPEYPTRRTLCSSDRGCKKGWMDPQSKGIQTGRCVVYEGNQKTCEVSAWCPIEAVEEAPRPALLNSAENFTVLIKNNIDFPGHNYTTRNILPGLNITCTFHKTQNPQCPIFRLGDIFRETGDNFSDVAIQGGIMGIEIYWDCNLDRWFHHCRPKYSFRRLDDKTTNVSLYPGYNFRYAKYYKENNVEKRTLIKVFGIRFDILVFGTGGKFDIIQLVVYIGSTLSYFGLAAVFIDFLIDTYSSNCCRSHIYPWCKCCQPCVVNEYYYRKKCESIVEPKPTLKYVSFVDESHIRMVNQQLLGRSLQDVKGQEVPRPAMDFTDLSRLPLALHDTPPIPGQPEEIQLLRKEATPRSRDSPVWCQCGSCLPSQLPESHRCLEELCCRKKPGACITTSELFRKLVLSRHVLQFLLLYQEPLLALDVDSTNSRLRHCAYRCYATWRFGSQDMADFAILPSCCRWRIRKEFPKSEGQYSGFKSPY
Put plainly: BzATP-induced IL-1β secretion from human monocytes/macrophages activated by beta amyloid peptide 1-42 (ELISA). The experiment is classed as cell-based. The arrangement: Monocytes were isolated from peripheral blood mononuclear cells (PBMCs); endogenous in cells; host or cells: primary monocytes isolated from peripheral blood mononuclear cells. The procedure:
Cell isolation: Monocytes were isolated from peripheral blood mononuclear cells (PBMCs) as follows. Whole blood was layered directly onto Histopak 1077-1 columns (Sigma Biochemicals) and centrifuged at 800×g for 15 minutes. The PBMC band of cells was removed to a fresh 50 ml culture tube and diluted 1:1 with wash buffer (Phosphate buffered saline, pH 7.4 containing 2 mM EDTA and 5 mg/ml BSA) followed by centrifugation at 800×g for 5 minutes. Cells were then washed by sequential resuspension of the cell pellet in wash buffer and centrifugation at 600×g for 5 minutes. The wash process was repeated until the supernatant was clear of contaminating platelets (5 to 6 washes). Monocytes were then purified from the PBMCs by negative selection using a monocyte isolation kit (Miltenyi Biotec, Inc) that contains antibodies to non-monocytic cells, running the cells over a magnetic column to remove antibody-bound cells, and collecting the flow through volume of monocytes. Monocytes were washed once with wash buffer and seeded at 10E5 cells per well in 100 μl serum-free RPMI 1640 in 96-well plates and incubated for 1 hour at 37° C. in a 5% CO2/95% humidified tissue culture incubator. After 1 hour, the medium was replaced with 100 μl complete culture medium (RPMI 1640, 10% human serum-type AB (heat inactivated), 25 mM HEPES, 2 mM glutamine, 50 U/ml each of penicillin and streptomycin) and incubated overnight (16 hours). Dosing regimen: The next day, the culture medium was replaced with 100 μl fresh complete culture medium in the absence or presence of human beta amyloid 1-42 peptide (5 μM) and incubated at 37° C. in a 5% CO2/95% humidified tissue culture incubator for 5 hours. Medium was then removed and discarded. Each well was washed once with Hanks buffered saline (HBSS) containing 1 mM CaCl2 followed by the addition of 80 μl of HBSS/CaCl2. […] Medium was then removed to new 96-well plates for storage at −70° C. until the IL-1β content was quantitated by ELISA (from R&D Systems). The cells were washed once with HBSS/CaCl2 followed by lysing the cells with 100 μl ice cold lysis buffer (100 mM Tris, pH 7.6, 1% triton X-100, and 1 tablet per 30 ml Complete TM protease inhibitor from Roche Biochemicals, Inc). Cell lysates were stored at −70° C. until the IL-1β was quantitated by ELISA. The results thus obtained for percent inhibition of BzATP-induced IL-1β secretion using a few of the P2X-7 compounds of the present invention are summarized in Table 7.
(An ELISA detects its analyte on a solid surface through an enzyme-linked reagent.)

Experiment [2] concerns the target T1, P2X7. Put plainly: YO-PRO-1 dye uptake assay in U373 cells stably expressing P2X7. The experiment is classed as cell-based. Further details: The complete open reading frame of human P2X7 was amplified from Incyte clone 148057; expressed in transfected cells. The conditions noted are these: dye uptake through P2X7, U373 cells, 300 μM BzATP, 5 μM YO-PRO-1, test compounds 30 nM to 3 μM; read-out: IC50. The essentials:
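U373 cells stably expressing human P2X7 preincubated 20 min at 37° C. with compound (30 nM to 3 μM) in Mg/Ca-free HBSS. YO-PRO-1 (5 μM final) and BzATP (300 μM final) then added for 1.5 h at 37° C.; dye-uptake fluorescence compared with compound-free control.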

Experiment [3] has as its system Long Evans derived male rats. Put plainly: carrageenan induced paw edema. The experiment is classed as in vivo, rat. The conditions noted are these: 150 mg/kg, PO. A general note: The carrageenan paw model is a standard test of acute inflammation.
The subject of the next experiment is Wistar derived male rats. Put plainly: 2,4-dinitrobenzenesulfonic acid (DNBS) induced distal colitis. The conditions noted are these: 30 mg/kg×7, oral administration. The experiment is classed as in vivo, rat.
Where [4] appears, read: BzATP (300 μM)-induced IL-1β secretion, human monocytes primed with beta amyloid 1-42 (5 μM), read-out: IC50.

`Fc1cccc(CNC2=N[C@@H](c3cccc(F)c3)[C@@H](c3cccc(F)c3)N2)c1` [[cis-4,5-bis-(3-Fluorophenyl)-4,5-dihydro-1H-imidazol-2-yl]-(3-fluorobenzyl)amine hydrochloride]: the IC50 against P2X7 [1] was 1.28 µM; on P2X7 [2], 0.042 µM. Take `CC(=O)Oc1ccccc1C(=O)O` [aspirin]: in experiment [3], the “inhibition of inflammation (hind paw edema)” value came out at 38%. On to `O=C(O)c1cc(/N=N/c2ccc(S(=O)(=O)Nc3ccccn3)cc2)ccc1O` [sulfasalazine], for which the “inhibition of the inflammation” value with Wistar derived male rats is listed as 37%. Consider `CC(C)(CC1=NC(c2ccccc2)C(c2ccccc2)N1)c1ccccc1` (stereo not shown) [trifluoroacetate], for which, at P2X7 [1] (setting [4]), the IC50 was determined as 0.178 µM.

As to `Fc1ccc(CC2=N[C@@H](c3ccccc3)[C@@H](c3ccccc3)N2)cc1Cl` [trifluoroacetate], the IC50 stood at 0.157 µM on P2X7 [1] (setting [4]) and 0.013 µM on P2X7 [2].

In general, IC50 refers to the midpoint of a concentration-inhibition curve.
